Test results published in paper PMC7217877, “N-AS-triggered SPMs are direct regulators of microglia in a model of Alzheimer’s disease” (Nature Communications, 2020).
Several values for one entry are separate records, joined by “and”; a condition that tells them apart may be missing. Equal values may be shown once.

Assays:
COX2 = test: SphK1-mediated COX2 acetylation with [14C] acetyl-CoA (ATP competition, SphK1 mutants; Supplementary Fig 1h,i); type: biochemical, human; conditions: COX2 +
Excerpt: Single point mutations in SphK1 (R56A, R57A, R24A, R185A, D178A, and F192A) and COX2 (S565A, N181A, T564A, and S567A) were generated using the In-Fusion Cloning Kits (Clontech) and ORF cDNA expression plasmids of human SphK1 and COX2 gene (Sino Biological Inc, HG15679-NH and HG12036-NH), according to the manufacturer’s instructions. The forward and reverse primers described in Supplementary Table 4. The SphK1 WT, SphK1 mutants, COX2 WT, and COX2 mutant plasmids were transformed in the One shot TOP 10 competent cell (Invitrogen). The bacteria were grown in Luria-Bertani (LB, Invitrogen) plates supplemented with 50 μg ml^−1 kanamycin (Sigma-Aldrich) at 37 °C. The bacterial cell pellets were resuspended in lysis buffer containing 20 mM sodium phosphate (GE Healthcare), 500 mM NaCl (GE Healthcare), 20 mM imidazole (pH 7.4) (GE Healthcare), 0.2 mg ml^−1 lysozyme (Sigma-Aldrich), 20 μg ml^−1 DNase I (Roche), 1 mM MgCl2 (Sigma-Aldrich), and 1 mM PMSF (Sigma-Aldrich) before being lysed by sonication and clarified by centrifugation at 15,493×g for 10 min. Proteins were purified from the soluble fraction using His-Spin Trap columns (GE Healthcare) and the binding and acetylation assays were performed.
Acetylation assays were performed according to previously described procedures with minor modifications. […] N-AS (2 μCi, ARC UK Ltd, ARC-1024) at 37 °C for 2 h. [^14C] aspirin (2 μCi, ARC UK Ltd, ARC-0473) was conducted as the positive control. The reactions were terminated by placing the reaction tubes in ice for 5 min. To evaluate in vivo neuronal and microglial COX2 acetylation, 10 μCi [^14C] N-AS was orally administrated to 9-months-old WT and APP/PS1 mice. After 1 h, neuron and microglia were isolated and sonicated in culture media. To immunoprecipitate acetylated COX2, the sample was incubated with COX2 antibody (Abcam, ab15191) at 4 °C for 24 h and precipitated by adding 50 μl of protein-A sepharose (GE Healthcare). Acetylated COX2 proteins bound to the beads were analyzed using a Tri-Carb 3110TR liquid scintillation counter (Perkin-Elmer).

microglia = test: sphingosine level in primary cells (UPLC); type: cell-based, C57BL/6 mice; conditions: Ab 10mM, replicates
Description: To confirm the generation and roles of N-AS in neurons, cells from E18 C57BL/6 mice were prepared as previously described. Cortices were dissected and then dissociated followed by incubation in papain (Worthington) at 37 °C for 15 min. Neurons were plated on poly-L-lysine-coated coverslips with neuronal culture medium, serum-free Neurobasal medium (Gibco) containing 2% B27 supplements (Gibco), 1 mM Glutamax supplement (Gibco), and 100 U ml^−1 streptomycin/ 100 U ml^−1 penicillin (Gibco) at 37 °C in a humidified atmosphere of 5% CO2. Aβ 1–42 (10 μM, 24 h, Invitrogen, 03112) was exposed to neurons and the cells were analyzed for the generation and roles of N-AS. Primary astrocyte cultures were prepared from C57BL/6 mice as described previously. […] The human microglia treated with Aβ 1–42 and/or zileuton was incubated with N-AS (2.5 μM, 2 h, Sigma-Aldrich, 01912), and were analyzed for the generation and roles of N-AS.
To quantify the sphingosine levels, the dried lipid extract was resuspended in 0.2% Igepal CA-630. […] The fluorescent sphingosine was monitored using a model 474 scanning fluorescence detector (Waters). Quantification of the sphingosine was calculated from sphingosine calibration curves using the Waters Millennium software.

Compound	COX2 acetylation with C14 Acetyl CoA (sFig 1i) (COX2; Acetyl transfer: SphK1, Sph, ATP, listed as C14 Acetyl CoA)	COX2 acetylation with C14 Acetyl CoA (sFig 1i) (COX2; Acetyl transfer: SphK1, Sph, listed as C14 Acetyl CoA)	COX2 acetylation with C14 Acetyl CoA (sFig 1i) (COX2; Acetyl transfer: SphK1, listed as C14 Acetyl CoA)	COX2 acetylation with C14 Acetyl CoA (sFig 1i) (COX2; Acetyl transfer: SphK1 R24A, Sph, listed as C14 Acetyl CoA)	COX2 acetylation with C14 Acetyl CoA (sFig 1i) (COX2; Acetyl transfer: SphK1 R56A, Sph, listed as C14 Acetyl CoA)	COX2 acetylation with C14 Acetyl CoA (sFig 1i) (COX2; Acetyl transfer: SphK1 R57A, Sph, listed as C14 Acetyl CoA)	COX2 acetylation with C14 Acetyl CoA (sFig 1i) (COX2; Acetyl transfer: SphK1 R185A, Sph, listed as C14 Acetyl CoA)	COX2 acetylation with C14 Acetyl CoA (sFig 1i) (COX2; C14 Acetyl CoA +, Acetyl transfer -)	sphingosine (Fig 3f) (microglia)
CC(=O)SCCNC(=O)CCNC(=O)[C@H](O)C(C)(C)COP(=O)(O)OP(=O)(O)OC[C@H]1O[C@@H](n2cnc3c(N)ncnc32)[C@H](O)[C@@H]1OP(=O)(O)O [Acetyl-CoA, acetyl-CoA]	10456 and 10500 and 10758 and 10726	19270 and 24354 and 19216 and 24474 and 19218 and 24370	11878 and 13132 and 13238 and 13414 and 13230	12532 and 11618 and 11452 and 12034 and 12526 and 12014	9992 and 10060 and 9758 and 9780 and 9270 and 10086	14380 and 14360 and 14338 and 14310 and 14334 and 14376	10222 and 9944 and 10214 and 10110 and 9988	2366 and 2614 and 2946 and 2710 and 2880 and 2156	–
Ab: Aβ 1–42 (Invitrogen, 03112) used to induce an AD environment in cells	–	–	–	–	–	–	–	–	0.15 and 0.136 and 0.128 and 0.16 and 0.14 and 0.144
